Test results: PMC6478789, “A chemical toolbox for the study of bromodomains and epigenetic signaling” (Nature Communications, 2019)

Key:
[1] = test system: three TNBC lines; assay: Combinatorial screen of BRD inhibitors with or without BAY-876 (confluency); assay type: cell-based, human
Method: Fig. 6 BRD inhibitors leverage metabolic adaptations induced by glucose transporter I (GLUT1) inhibition in TNBC. a BRD inhibitor screening across ten TNBC cell lines. Cells were treated with indicated BRD inhibitors at 3 μM for 7 days. Confluency was measured using an IncuCyte ZOOM live cell imaging device. Data shown are mean ± s.d. of n = 4 independent cell culture grown and treated cells. A two-sided Student’s t test was used to derive the p-values. b SLC2A1 gene expression in the The Cancer Genome Atlas (TCGA) breast datasets. The cohorts were divided into TNBCs (red) and non-TNBCs (blue) according to PAM50 classification. Gene expression is reported as median-centered expression log2 values. The number of patients (n) per group is indicated. P-values were determined using a Wilcoxon's rank-sum test. c Glucose uptake in MDA-MB-436 cells in response to BAY-876 treatment relative to vehicle. MDA-MB-436 cells were treated with dimethyl sulfoxide (DMSO) or 3 µM BAY-876 for 5 days. Graph indicates mean, error bars denote s.d. from three independent assays and p-value was computed using the Benjamini-Hochberg t test; ***p < 0.001. d Effects of BAY-876 treatment on the intracellular acetyl-CoA level. Graph indicates mean, error bars denote s.d. from three independent assays and p-value was computed using the Benjamini-Hochberg t test; ***p < 0.001. e Effects of BAY-876 treatment on intracellular NAD^+/NADH level. Graph indicates the mean, error bars denote s.d. from three independent assays and p-value computed using the Benjamini-Hochberg t test; **p < 0.01. f Immunoblot analysis of H3 and H4 acetylation in MDA-MB-436 cells before and after BAY-876 treatment. P-value computed using the Benjamini-Hochberg t test; ***p < 0.001. g Cell growth effects of BAY-876 treatment on three representative cell lines. n.s. not significant. h Combinatorial screening of BRD inhibitors with or without 3 μM BAY-876 across ten TNBC cell lines. Cell confluency was obtained from the endpoint Incucyte scanning. (Left) Heatmap of the combinatorial screening results; (Right) Cell confluency after treatment with three potential BRDi candidates at 3 μM in the presence or absence of 3 μM BAY-876 in three representative cell lines. Graph indicates mean, error bars denote s.d. from three independent assays and p-values were computed using the Benjamini-Hochberg t test; **p < 0.01; ***p < 0.001. Raw data images are available in Supplementary Fig. 4
TNBC cell lines were seeded in sterile, transparent 384-well plates at 500 cells per well in 50 µl media. Chemical probes were delivered in dimethyl sulfoxide (DMSO). Cell confluency at 7 days was evaluated using an Incucyte ZOOM live cell imaging device (Essen Bioscence) and analyzed with the Incucyte ZOOM (2016A) software based on phase contrast image.

[2] = test system: TNBC cell lines; assay: OF-1 IC50 in glucose deprivation media; assay type: cell-based, human; conditions: 7 days
Excerpt: Graph indicates mean, error bars denote s.d. from eight wells (from two independent assays) and p-value was computed using the Benjamini-Hochberg t test; ***p < 0.001. d Immunoblot validation of BRPF knockdown in MDA-MB-436 cells. e Quantitative real-time PCR (RT-qPCR) validation of BRPF knockdown in MDA-MB-436 cells. […] Raw data images are available in Supplementary Fig. 4 […]
Wood & Pier Lorenzo Puri Scientific Reports volume 7, Article number: 6153 (2017)) as well as the role of the BET proteins in muscle differentiation (Roberts et al, Scientific reports 2017: BRD3 and BRD4 BET Bromodomain Proteins Differentially Regulate Skeletal Myogenesis). […]
Additional minor comment: The writing in the figure is often not readable (very low resolution) […]
with 0.1% DMSO (vol/vol). Cell viability at 7 days was evaluated using Incucyte ZOOM live cell imaging device (Essen Bioscence) and analyzed with Incucyte ZOOM (2016A) software based […]
In this study, Wu and colleagues report on characterization and possible applications of a set of 25 inhibitors for bromodomain. The authors evaluated selectivities of these inhibitors by measuring Kds for the interactions with a large number of bromodomains using ITC and BROMOscan. […]

[3] = biological target: T1, ATAD2A (Homo sapiens, UniProt Q6PL18); design: purchased; method as in ref 20 (suppl.); conditions: BROMOscan; ref 20 (suppl.); cited from earlier work
T1 sequence (Q6PL18 980-1092 limits assumed): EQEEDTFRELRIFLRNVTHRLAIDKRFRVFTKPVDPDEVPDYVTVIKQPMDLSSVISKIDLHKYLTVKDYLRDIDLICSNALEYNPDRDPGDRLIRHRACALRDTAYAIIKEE

Cc1c(NC(=O)c2cc(C(N)=O)nc3cc(F)ccc23)c(C(F)(F)F)nn1Cc1ccc(C#N)cc1 [BAY-876]
cell growth, treatment alone ([1]; 3 μM alone): no effect

COc1cc2c(cc1NS(=O)(=O)c1ccc(Br)cc1C)n(C)c(=O)n2C [OF-1]
OF-1 sensitivity [2]: increase of OF-1 sensitivity | combination effect with BAY-876 across the three cell lines ([1]; 3 μM probe + 3 μM BAY-876): strong synergistic effect across all three cell lines | viability in combination with BAY-876 ([1]; 3 μM probe + 3 μM BAY-876): significant decrease in viability

COc1cc(Cl)c(C(=O)N[C@@H](CN[C@H]2CC[C@@H](N)CC2)Cc2ccc(C#N)cc2)cc1-c1ccc(CN[C@H](C)c2ccc(C)cc2)o1 [BAY-850]
Kd [3]: 120 nM
